{
  "source": "patent US9522124B2",
  "about": "“Methods for treating Alzheimer's disease” (Wisconsin Alumni Research Foundation, priority 2011, dated 2016)",
  "key": {"[1]": {"assay": "BBB permeability: mass spectrometry of CSF of treated wild-type mice", "type": "in vivo, mouse", "details": "50 mg/kg/day in diet, 1 week", "protocol": "FIGS. 14. (A), (B) and (C) Compound 9 is able to cross the BBB. Wild-type mice (n=5) were fed a diet containing 50 mg/kg/day of compound 9 for one week and then sacrificed. Control animals (n=5) received placebo-containing pellets. CSF was collected and analyzed by mass spectrometry (MS) to detect compound 9. The pick corresponding to compound 9 is indicated. […] Because of the strong hydrophobic properties of the compound, elution was in 100% methanol. Under these conditions most of compound 9 was found protonated and complexed as follows: 1 molecule of compound 9 (protonated):3 molecules of water (1 protonated):1 molecule of methanol. The total mass of the eluted complex was 369.4. This complex is only generated when adding methanol during the elution process for the MS. Compound 9 was never observed in control animals.\nTo assess BBB permeability properties, a group of 5 wild-type mice received 50 mg/kg/day of compound 9 for 1 week. Animals were then sacrificed and CSF collected for biochemical analysis. Treatment was limited to 1 week because this length of time is usually sufficient to reach equilibrium in biological fluids (Ito, et al., 1998; Singh, 2006; Houston and Galetin, 2008). Concentration and duration of the treatment was based on previous studies with drug-like compounds having similar mass and solubility properties (Ito, et al., 1998; Singh, 2006; Houston and Galetin, 2008)."}, "ATase2": {"target": "T1, ATase2 (Homo sapiens, UniProt Q9UHE5)", "T1 construct": "myc (C); made in house", "T1 sequence (Q9UHE5 1-227)": "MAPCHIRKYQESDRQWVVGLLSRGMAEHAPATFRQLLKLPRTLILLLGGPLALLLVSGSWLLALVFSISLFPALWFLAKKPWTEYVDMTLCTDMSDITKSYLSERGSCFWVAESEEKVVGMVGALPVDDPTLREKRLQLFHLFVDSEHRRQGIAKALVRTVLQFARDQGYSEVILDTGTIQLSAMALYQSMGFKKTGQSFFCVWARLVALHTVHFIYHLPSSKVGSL", "assay": "AcetylCoA:lysine acetyltransferase assay (fluorescent, affinity purified ATase2-myc)", "type": "biochemical", "protocol": "The acetyl:CoA lysine acetyltransferase activity of ATase1 and ATase2 was assayed as described before (Ko and Puglielli, 2009). Briefly, we adapted a commercially available fluorescent kit (cat. no. 10006515, Cayman Chemicals) as follows: as source of the enzymatic activity, we used affinity purified ATase1-myc and ATase2-myc at the final concentration of 300 ng/μl; as donor of the acetyl group, we used acetyl-CoA at the final concentration of 12.5 μM. […] The acetyltransferase assay was performed as recommended by the manufacturer.\nFor kinetic analysis of ATase1 and ATase2 inhibition, the assays were performed in the presence of the indicated concentrations of compound 9, 19 and 9.I. The concentration of acetyl-CoA was varied from […]. Values were plotted as a Lineweaver-Burk plot using Graphpad Prism software.\nWe previously described a fluorescent assay that is able to assess the acetylCoA:lysine acetyltransferase activity of ATase1 and ATase2 in vitro (Ko and Puglielli, 2009). The assay employs affinity purified ATase1 or ATase2 (as enzymes), acetyl-CoA (as donor of the acetyl group) and a recombinant peptide corresponding to the N-terminal tail of the histone protein H3 (as acceptor of the acetyl group). The H3 peptide was preferred to affinity purified BACE1 because it is acetylated in a conformation independent manner ((Ko and Puglielli, 2009) and data not shown) and, therefore, more suitable for large screening approaches. To identify possible ATase1 and ATase2 inhibitors we used the assay to screen a single library of 14,400 small molecules/compounds. The screen identified 186 small molecules/compounds able to inhibit ATase1, ATase2 or both in vitro. […] Each compound was then screened for cytotoxic properties by using multi-plex cytotoxicity assays on a variety of cell lines, including human neuroblastoma and human neuroglioma. […] The above 30 compounds were individually screened on human neuroglioma (H4) cells for their ability to reduce the levels of BACE1 and the generation of Aβ. Two compounds, 9 and 19, produced significant changes and were object of further study."}, "[2]": {"tested_on": "cytosolic and nuclear proteins, histone proteins H3 and H4", "assay": "Lysine acetylation profile of cytosolic and nuclear proteins in H4 cells", "type": "cell-based, human", "details": "48 hours", "protocol": "FIG. 8. […] (A and B) H4 cells were treated with either compound 9 or 19 for 48 hours prior to Western blot assessment of the acetylation profile of cytosolic (A) and nuclear (B) proteins. (C) The nuclear fraction used in (B) was also used to assess the lysine acetylation profile of the histone proteins H3 and H4.\nWestern blotting was performed on a 4-12% Bis-Tris SDS-PAGE system (NuPAGE; Invitrogen, Carlsbad, Calif., USA) as described previously (Costantini et al., 2006; Jonas et al., 2008; Jonas et al., 2010; Ko and Puglielli, 2007; Ko and Puglielli, 2009; Pehar et al., 2010). The following antibodies were used in this study: anti-acetylated lysine (monoclonal; cat. no. ab409; Abcam, Cambridge, Mass., USA); anti-BACE1 (polyclonal; cat. no. ab2077; Abcam); anti-Myc (monoclonal; cat. no. sc-40; santa cruz, Santa Cruz, Calif., USA); anti-ATases/NAT8 (polyclonal; cat. no. AP4957c; Abgent, San Diego, Calif., USA); anti-actin (monoclonal; cat. no. A1978; Sigma, St Louis, Mo., USA); anti-C99 (monoclonal; cat. no. M066-3; MBL, Woburn, Mass., USA); anti-acetylated H3 (polyclonal; cat. no. 06-599, Millipore, Billerica, Mass.); anti-acetylated H4 (polyclonal; cat. no. 06-866, Millipore, Billerica, Mass.); anti-αPCNA (polyclonal; cat. no. AP2835b, Abgent, San Diego, Calif., USA).\nCytosolic and nuclear extracts were prepared as described before (Ko and Puglielli, 2007). For cytosolic extracts, cells were homogenized in homogenization buffer containing 25 mM Tris-HCl, pH 7.4, 0.5 mM EDTA, 0.5 mM EGTA, and a protease inhibitor mixture. The homogenates were centrifuged at 14,000×g for 15 min, and supernatants were collected as cytosolic proteins.\nFor nuclear extracts cells were scraped into ice-cold phosphate-buffered saline and collected by centrifugation. The cell pellets were suspended in 3 volumes of lysis buffer (20 mM Hepes, pH 7.9, 10 mM KCl, 1 mM EDTA, pH 8.0, 0.2% Nonidet P-40, 10% glycerol, and a protease inhibitor mixture) followed by incubation on ice for 10 min. Cell suspensions were gently pipetted up and down; the lysates were then centrifuged at 14,000×g for 5 min at 4° C. to obtain nuclear pellets. Nuclear pellets were washed twice with cell lysis buffer (lacking Nonidet P-40 and protease inhibitor mixture) and then resuspended in 2 volumes of nuclear extract buffer (20 mM Hepes, pH 7.9, 10 mM KCl, 1 mM EDTA, pH 8.0, 420 mM NaCl, 20% glycerol, and a protease inhibitor mixture). The nuclei were extracted by incubation at 4° C. for 30 min with gentle agitation followed by centrifugation at 14,000×g at 4° C. for 5 min; the resultant supernatant fraction was used as a nuclear extract."}},
  "data": [
    {"smiles": "O=c1c(Cl)c2oc3ccccc3nc-2c2ccccc12", "note": "[Compound 9]", "values": [
      {"measurement": "detection in CSF (crosses blood brain barrier)", "setting": "[1]", "value": "detect compound 9 in all treated animals"},
      {"measurement": "IC50", "setting": "ATase2", "value": "~790", "unit": "nM"},
      {"measurement": "kinetics of inhibition for acetyl-CoA, ATase2", "setting": "ATase2; Lineweaver-Burk plot, acetyl-CoA varied", "value": "non-competitive inhibition"},
      {"measurement": "acetylation profile of cytosolic and nuclear proteins", "setting": "[2]", "value": "Neither compound 9 nor compound 19 produced significant changes"},
      {"measurement": "acetylation profile of the histone protein H3 and H4", "setting": "[2]; nuclear fraction", "value": "slight reduction"}
    ]}
  ]
}
